# Values of other authors, collected in patent US20260083720A1 (Vyluma Inc., priority 2022, published 2026).
# Experiments:
# [1] = system: myopia progression; conditions: Hieda et al., atropine group
# [2] = system: myopia progression; conditions: Wei et al., atropine-placebo group
# [3] = system: myopia progression; conditions: Chan, 0.01% concentration, period of 6 months
# [4] = system: myopia progression; conditions: Yam et al., atropine at 0.01%; dose-dependent between 0.05% and 0.01%
smiles,measurement,setting,value
CN1[C@@H]2CC[C@H]1C[C@@H](OC(=O)C(CO)c1ccccc1)C2 (some centres unmarked) [atropine],mean AL changes at 24 mo,[1]; placebo 0.77,0.63 mm
same,Mean SER changes at 24 mo,[1]; placebo −1.48,−1.26 D
same,mean myopia progression after 24 months,[2],−1.26 D
same,changes in mean SER and AL,[3],can be reduced
same,effect of atropine on myopia progression,[4],only relatively small effects
